# From article PMC10384183, “Silver(I) and Copper(II) 1,10-Phenanthroline-5,6-dione Complexes as Promising Antivirulence Strategy against Leishmania: Focus on Gp63 (Leishmanolysin)” (Tropical Medicine and Infectious Disease, 2023)
# Like-named read-outs stand apart in the source and are kept apart here. Where a SMILES comes first, the peptide text is derived from it. The star is where a group is joined. AMC = Cc1cc(=O)oc2cc(N*)ccc12; Cbz = O=C(OCc1ccccc1)*
# B1: oryzacystatin I (protein, UniProt P09229 27-140, looked up)
# Cysteine proteinase inhibitor …: EAHRAGGEGEEKMSSDGGPVLGGVEPVGNENDLHLVDLARFAVTEHNKKANSLLEFEKLVSVKQQVVAGTLYYFTIEVKEGDAKKLYEAKVWEKPWMDFKELQEFKPVDASANA
# Experiments:
# secreted gp63 [1] = target: T1, secreted gp63 (Leishmania amazonensis, UniProt Q27673); test: Detection of gp63 activity using fluorogenic substrate Z-Phe-Arg-AMC (kinetics, classical inhibitors); format: biochemical; parameters: endogenous in cells; host or cells: Leishmania amazonensis promastigotes; 0.22-µm filtered PBS-glucose-conditioned supernatant; conditions: for effect on hydrolysis of Z-Phe-Arg-AMC by gp63: 1 h, alkaline pH
# T1 sequence (Q27673 100-597): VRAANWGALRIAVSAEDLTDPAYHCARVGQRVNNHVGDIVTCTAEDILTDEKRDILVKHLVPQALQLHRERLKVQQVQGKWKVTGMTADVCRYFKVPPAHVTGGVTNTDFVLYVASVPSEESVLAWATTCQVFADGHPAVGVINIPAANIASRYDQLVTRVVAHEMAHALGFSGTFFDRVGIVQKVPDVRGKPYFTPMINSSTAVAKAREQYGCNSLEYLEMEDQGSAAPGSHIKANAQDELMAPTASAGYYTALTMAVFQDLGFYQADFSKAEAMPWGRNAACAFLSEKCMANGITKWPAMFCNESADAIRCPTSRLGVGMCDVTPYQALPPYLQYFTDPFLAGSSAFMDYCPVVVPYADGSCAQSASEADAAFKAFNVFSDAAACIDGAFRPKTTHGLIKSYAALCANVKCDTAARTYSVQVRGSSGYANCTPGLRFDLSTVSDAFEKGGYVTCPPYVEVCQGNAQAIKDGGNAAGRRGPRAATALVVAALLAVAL
# Protocol: The enzymatic activity of secreted gp63 was evaluated by the cleavage of the fluorogenic substrate Z-Phe-Arg-AMC. A 5 mM stock solution of the fluorogenic substrate was prepared in DMSO. The reaction was initiated by adding different substrate concentrations (2.5 µM, 5.0 µM, 10 µM and 20 µM) to gp63 (20 µg protein) in a total volume of 100 µL of 50 mM glycine-NaOH buffer, pH 10.0 [38]. At the same time, the titration of the amount of gp63 was also performed. In this sense, different concentrations of gp63 (ranging from 0.156 to 20 µg) were added to 10 µM Z-Phe-Arg-AMC substrate in a total volume of 100 µL of 50 mM glycine-NaOH buffer, pH 10.0. […] The reaction mixture was incubated at 37 °C for 1 h and the assays were controlled for self-release of the fluorophore in the same time interval. Proteolytic activity was expressed as fluorescence arbitrary units (FAU). Apparent Km and Vmax values were calculated using a computerized non-linear regression from the data obtained from the Michaelis–Menten equation (GraphPad Prism 8).
# [2] = tested on: cell-associated metallo-type peptidases (gp63); test: gp63 proteolytic activity of cell extracts of treated promastigotes; format: cell-based, Leishmania amazonensis; conditions: promastigotes treated 24 h, IC50 and 2 × IC50; Z-Phe-Arg-AMC; versus untreated cells
# Protocol: After that, promastigotes were washed and processed to evaluate both gp63 activity and gp63 protein levels.
# For gp63 proteolytic activity, initially, whole parasite cellular extracts were obtained by repeated freeze/thawing cycles using 10^6 viable cells in PBS containing 1% CHAPS (3-[(3-cholamidopropyl) dimethylammonium]-1-propanesulfonate), pH 7.0. […] The gp63 proteolytic activity was determined as previously described using the cleavage of the fluorogenic substrate Z-Phe-Arg-AMC.
# [3] = tested on: L. amazonensis promastigotes and THP-1 human macrophages; test: Promastigotes-macrophage interaction (association index); format: cell-based, Leishmania amazonensis; parameters: key: % infected macrophages × amastigotes per macrophage
# Protocol: The human leukemia monocytic cell line (THP-1) was maintained in 25-cm^2 tissue culture flasks with RPMI 1640 medium (Sigma-Aldrich, St. Louis, MO, USA) supplemented with 10% FBS at 37 °C in an atmosphere containing 5% CO2. To perform interaction experiments, THP-1 cells were seeded in 24-well plates at a density of 2 × 10^5 cells/well and then differentiated into macrophages by treatment with phorbol-12-myristate-13-acetate (PMA; 40 ng/mL) (Sigma-Aldrich) for 48 h. Then, the plates were washed twice with sterile PBS (pH 7.2) to remove PMA and a fresh RPMI 1640 medium was added. At the same time, L. amazonensis promastigotes were treated with the IC50 or 2 × IC50 values of the test compounds for 24 h. After this period, the parasites were allowed to infect the mammalian cells (10 parasites per macrophage) for 24 h at 37 °C and 5% CO2, in the absence or presence of 10 µg soluble gp63. Then, the cultures were washed with PBS to remove non-internalized parasites, fixed with methanol and stained with Giemsa. The percentage of infected macrophages was determined by randomly counting 200 cells on each of triplicate coverslips using a bright-field microscope. The association index was obtained by multiplying the percentage of infected macrophages by the number of amastigotes per macrophage.
# [4] = tested on: L. braziliensis gp63, membrane-associated form; parameters: method as in PMID 34363115; conditions: cited from earlier work
# [5] = tested on: L. braziliensis promastigotes and murine macrophages; parameters: method as in PMID 34363115; conditions: promastigotes pre-treated for 1 h; cited from earlier work
# L. braziliensis = tested on: L. braziliensis; parameters: method as in doi:10.1016/j.ejmcr.2022.100093; conditions: hamsters; cited from earlier work
# secreted gp63 [6] = target: T1, secreted gp63
# Protocol: (§1) L. amazonensis promastigotes (10^9 cells) were resuspended in 2 mL of sterile isotonic PBS supplemented with 2% glucose and incubated for 3 h at both 26 °C (invertebrate host temperature) and 37 °C (mammalian host temperature). After this interval, parasite cells were removed by centrifugation and the supernatant (named PBS-glucose-conditioned supernatant) was passed over a 0.22-μm sterilizing membrane (Millipore, São Paulo, Brazil). The protein concentration was quantified by the method described by Lowry et al. [35], using bovine serum albumin (BSA) as standard.
# (§2) To perform this, the reaction mixture containing 10 μg protein, 10 µM substrate and 50 mM glycine-NaOH buffer, pH 10.0, was incubated in the absence or presence of different concentrations of Ag-phendione (ranging from 40 to 0.625 μM) and Cu-phendione (ranging from 1000 to 15.62 μM). Fluorescence was measured using a SpectraMax Gemini XPS fluorescence microplate reader (Molecular Devices, Silicon Valley, CA, USA) at an excitation wavelength of 380 nm and an emission wavelength of 460 nm. […] The inhibitory constant (Ki) value was calculated using a derivation of the Michaelis–Menten equation employing GraphPad Prism 8.
# [7] = tested on: L. amazonensis promastigotes; parameters: method as in PMID 36678418; conditions: 72 h of parasite-drug contact; cited from earlier work
# [8] = tested on: L. amazonensis amastigotes; parameters: method as in PMID 36678418; conditions: amastigotes in THP-1 macrophages; cited from earlier work
# LasB = target: LasB; parameters: method as in PMID 31428062; conditions: cited from earlier work
# secreted gp63 [9] = target: T1, secreted gp63; test: Gelatin-SDS-PAGE zymography of gp63 proteolysis; format: biochemical; parameters: endogenous in cells; host or cells: Leishmania amazonensis promastigotes; 0.22-µm filtered PBS-glucose-conditioned supernatant; conditions: 10 mM, pH 10.0, 48 h, 37 °C
# Protocol: Proteolytic activity was assayed by SDS-PAGE containing 0.1% gelatin (Sigma-Aldrich, St. Louis, MO, USA) incorporated into the gel as the proteinaceous substrate. Briefly, 10 micrograms of proteins present in the PBS-glucose-conditioned supernatant were added to the SDS-PAGE sample buffer (125 mM Tris, pH 6.8, 4% SDS, 20% glycerol and 0.002% bromophenol blue) and subsequently subjected to electrophoresis, which was processed at 200 V/20 mA, for 2 h at 4 °C. Subsequently, SDS was removed by incubation of the gels with 2.5% Triton X-100 (Sigma-Aldrich, St. Louis, MO, USA) for 1 h at room temperature under constant agitation. The gels were incubated for 48 h at 37 °C in 50 mM glycine-NaOH buffer, pH 10.0, to promote proteolysis in the absence and in the presence of classical proteolytic inhibitors as follows: 10 mM phen, 10 mM phenylmethylsulphonyl fluoride (PMSF; Sigma-Aldrich, St. Louis, MO, USA) and 10 µM trans-epoxysuccinyl L-leucylamido-(4-guanidino) butane (E-64; Sigma-Aldrich, St. Louis, MO, USA). Finally, the gels were stained with 0.2% Coomassie Brilliant Blue R-250 (Sigma-Aldrich, St. Louis, MO, USA) in methanol–acetic acid–water (50:10:40) and destained in a solution containing methanol–acetic acid–water (5:10:85). The molecular masses of the peptidases were estimated by comparison with the mobility of molecular mass standards (Thermo Fisher Scientific, Waltham, MA, USA).
# secreted gp63 [10] = target: T1, secreted gp63; test: biochemical
# Protocol: as §1, §2
# papain = tested on: papain; parameters: method as in PMID 8907521; conditions: cited from earlier work
# [11] = promastigotes pre-treated 24 h with 2 × IC50 value, in the presence of 10 µg gp63-rich supernatant
# [12] = promastigotes pre-treated 24 h with 2 × IC50 value, without gp63-rich supernatant
# [13] = promastigotes pre-treated 24 h with IC50 value, in the presence of 10 µg gp63-rich supernatant
# [14] = promastigotes pre-treated 24 h with IC50 value, without gp63-rich supernatant
molecule,measurement,setting,value
"CC(C)C[C@H](NC(=O)[C@H]1O[C@@H]1C(=O)O)C(=O)NCCCCN=C(N)N (relative stereo) [E-64, trans-epoxysuccinyl L-leucylamido-(4-guanidino) butane]",effect on hydrolysis of Z-Phe-Arg-AMC by gp63,secreted gp63 [1]; inhibitor at 10 µM,did not significantly change the enzymatic activity
"O=C1C(=O)c2cccnc2-c2ncccc21.O=C1C(=O)c2cccnc2-c2ncccc21.[Ag+].[O-][Cl+3]([O-])([O-])[O-] [Ag-phendione, [Ag(phendione)2]ClO4]",proteolytic capacity of cell-associated metallo-type peptidases reduced to,[2],approximately 55%
same,association index (AI),[3]; [11],77.3
same,association index (AI),[3]; [12],48.2
same,association index (AI),[3]; [13],88.1
same,association index (AI),[3]; [14],60.6
same,reduction of proteolytic activity,[4]; 1 μg/mL,68%
same,reduction of the Leishmania-macrophage interaction,[5],approximately 51.4%
same,"protective action (paw lesion, parasite number in paw and lymph nodes)",L. braziliensis,excellent protective action
"O.O.O.O.O=C1C(=O)c2cccnc2-c2ncccc21.O=C1C(=O)c2cccnc2-c2ncccc21.O=C1C(=O)c2cccnc2-c2ncccc21.[Cu+2].[O-][Cl+3]([O-])([O-])[O-].[O-][Cl+3]([O-])([O-])[O-] [Cu-phendione, [Cu(phendione)3](ClO4)2.4H2O]",proteolytic capacity of cell-associated metallo-type peptidases reduced to,[2],approximately 48%
same,association index (AI),[3]; [11],64.6
same,association index (AI),[3]; [12],54.8
same,association index (AI),[3]; [13],76.5
same,association index (AI),[3]; [14],63.1
same,IC50,"secreted gp63 [6]; secreted gp63 10 µg, 10 µM Z-Phe-Arg-AMC, glycine-NaOH pH 10.0, 37 °C, 1 h",163 µM
same,Ki,"secreted gp63 [6]; secreted gp63, Z-Phe-Arg-AMC, glycine-NaOH pH 10.0",27.1 µM
same,IC50,[7],0.0075 µM
same,IC50,[8],0.035 µM
same,Ki,LasB,0.09 µM
same,reduction of proteolytic activity,[4]; 0.1 μg/mL,65%
same,reduction of proteolytic activity,[4]; 1 μg/mL,80%
same,reduction of the Leishmania-macrophage interaction,[5],44.4%
same,"protective action (paw lesion, parasite number in paw and lymph nodes)",L. braziliensis,excellent protective action
"O=S(=O)(F)Cc1ccccc1 [PMSF, phenylmethylsulphonyl fluoride]",effect on hydrolysis of Z-Phe-Arg-AMC by gp63,secreted gp63 [1]; inhibitor at 10 mM,did not significantly change the enzymatic activity
"c1cnc2c(c1)ccc1cccnc12 [Phen, 1,10-phenanthroline]",effect on hydrolysis of Z-Phe-Arg-AMC by gp63,secreted gp63 [1]; inhibitor at 10 mM,strong inhibition of the proteolytic activity
same,effect on proteolytic bands around 66 kDa,secreted gp63 [9],inhibited
"O=C1C(=O)c2cccnc2-c2ncccc21 [Phendione, 1,10-Phenanthroline-5,6-dione]",Ki,LasB,0.38 µM
same,reduction of proteolytic activity,[4]; 1 μg/mL,67%
same,IC50,secreted gp63 [10],1490 µM
same,Ki,secreted gp63 [10],745 µM
Cc1cc(=O)oc2cc(NC(=O)C(CCCN=C(N)N)NC(=O)C(Cc3ccccc3)NC(=O)OCc3ccccc3)ccc12 (stereo not drawn) [Z-Phe-Arg-AMC] (Cbz-Phe-Arg-{AMC}; configuration not given here),Vmax,"secreted gp63 [1]; cleavage of Z-Phe-Arg-AMC by released gp63, pH 10.0, 37 °C",0.064 µM/s
same,Km,"secreted gp63 [1]; cleavage of Z-Phe-Arg-AMC by released gp63, pH 10.0, 37 °C, read-out: apparent Km",14.2 µM
"oryzacystatin I1 [OCII, reference compound]",proteolytic activity of papain restored after electrophoresis,papain,~100%
B1,inhibition of enzymatic activity of papain by the complex after electrophoresis,papain,about 80%
